Experimental data taken from US20150125904A1, “PROBE INCORPORATION MEDIATED BY ENZYMES” (Massachusetts Institute of Technology, priority 2012, published 2015).
Like-named read-outs stand apart in the source and are kept apart here.

Assays:
W37TLplA = molecular target: T1, W37TLplA (Escherichia coli, UniProt P32099, W38T); assay: UPLC screening of LplA single mutants for Pacific Blue ligation; type: biochemical, E. coli; conditions: after 12 hours, 500 μM probe
T1 construct: His6; made in house; host or cells: E. coli (bacterial lysate, not purified)
T1 sequence (P32099 2-338 W38T): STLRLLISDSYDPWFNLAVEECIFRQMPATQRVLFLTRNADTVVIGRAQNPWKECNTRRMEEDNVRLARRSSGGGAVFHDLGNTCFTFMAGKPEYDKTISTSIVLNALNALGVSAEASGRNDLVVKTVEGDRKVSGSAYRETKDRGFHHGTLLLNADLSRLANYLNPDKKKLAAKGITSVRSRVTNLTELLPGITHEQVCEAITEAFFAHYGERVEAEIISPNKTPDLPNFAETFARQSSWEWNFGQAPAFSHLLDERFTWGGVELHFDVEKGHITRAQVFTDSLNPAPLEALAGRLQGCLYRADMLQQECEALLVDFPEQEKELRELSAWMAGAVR
Method: In vitro ligation reactions were assembled as described in the main text with the following modifications. 5 μL bacterial lysate containing LplA was used in place of purified enzyme. Total reaction volume was 25 μL. Instead of LAP peptide, 150 μM purified E2p protein (see Uttamapinant, et al., 2010) was used. Reactions proceeded overnight at 30° C. with 500 μM probe. Ultra Performance Liquid Chromatography (UPLC) was used to detect any product formation. All products were confirmed by in-line mass spectrometry.

[1] = Photophysical properties of phycoerythrin and AlexaFluor 568; type: physicochemical
[2] = tested on: LAP-LDL receptor on HEK cells; assay: Comparison of Diels-Alder cycloaddition, CuAAC and strain-promoted cycloaddition for cell surface fluorescence labeling; type: cell-based, human; conditions: 3 min staining after TCO2 ligation
Source text: (A) HEK cells expressing LAP-LDL receptor and a nuclear cyan fluorescent protein transfection marker (shown in cyan, overlaid with DIC) were labeled in two steps, using three methodologies, as indicated by the scheme: Diels-Alder cycloaddition (left), CuAAC (middle), and strain-promoted cycloaddition (right). Fernandez-Suarez et al., Nature Biotechnology 2007, 25, 1483-1487. For the latter two, LAP was first derivatized with 8-azidooctanoic acid under conditions known to give quantitative yield. DIBO is dibenzylcyclooctyne. In all three cases, the second step was performed for 3 min., using the indicated Alexa 647 conjugates at the three indicated concentrations. Cells were imaged live after brief rinsing. Specific fluorescence staining with 1 μM DIBO-Alexa 647 was detectable (shown with enhanced contrast in inset). (B) Comparing cell viability after cell surface fluorescence labeling. Chinese hamster ovary cells expressing LAP-LDL receptor were labeled using Diels-Alder cycloaddition or CuAAC under the indicated conditions. Cell viability was then measured in triplicate, with untransfected and untreated cells defined as 100% viable. […]
These were previously determined, by subsequent lipoic acid pulse labeling, to give almost quantitative yield of 8-azidooctanoic acid ligation. […]

[3] = Photophysical properties, pKa and pH profiles of coumarin probes; type: physicochemical; conditions: 150 μM solutions, pH 3-10 buffers
Method: Fluorescence emission was recorded for 150 μM solutions, using a TECAN Safire Microplate Reader and a plastic transparent-bottomed 384-well plate (Greiner). pH 3-6 buffers were prepared by mixing different ratios of 0.1M acetic acid and 0.1M sodium acetate-trihydrate solutions. pH 7-10 buffers were prepared by mixing different ratios of 0.1M Na2HPO4 and either 0.1M HCl (for pH 7-9 buffers) or 0.1M NaOH (for pH 10 buffer). Final pH adjustments in all buffer solutions were made by adding small amount of 1M HCl or 1M NaOH.

W37VLplA [4] = molecular target: T2, W37VLplA (Escherichia coli, UniProt P32099, W38V); assay: In vitro coumarin ligation onto LAP2 (HPLC); type: biochemical, E. coli; conditions: 500 μM coumarin probe, 2 μM W37VLplA, 55-minute reaction
T2 sequence (P32099 2-338 W38V): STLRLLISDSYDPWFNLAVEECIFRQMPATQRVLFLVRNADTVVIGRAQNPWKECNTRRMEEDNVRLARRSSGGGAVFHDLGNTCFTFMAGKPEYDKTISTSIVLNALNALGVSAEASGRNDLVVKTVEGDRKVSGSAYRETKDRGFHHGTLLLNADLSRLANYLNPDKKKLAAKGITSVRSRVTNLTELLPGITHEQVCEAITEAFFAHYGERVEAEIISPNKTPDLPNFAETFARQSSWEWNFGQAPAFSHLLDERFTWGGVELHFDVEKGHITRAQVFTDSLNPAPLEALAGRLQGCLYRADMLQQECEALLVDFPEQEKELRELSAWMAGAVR
Method: Reactions were assembled as follows: 2 μM LplA enzyme, 150 μM LAP2 synthetic peptide (sequence: […]; see Puthenveetil et al., J. Am. Chem. Soc. 2009, 131 16430-16438), 500 μM 7-aminocoumarin 6 probe, 5 mM ATP, and 5 mM Mg(OAc)2 in 25 mM Na2HPO4 pH 7.2. The reaction mixture was incubated at 30° C. for 2 hours and quenched with EDTA (final concentration 100 mM). The mixture was analyzed on a Varian Prostar HPLC using a reverse-phase C18 Microsorb-MV 100 column (250×4.6 mm). Chromatograms were recorded at 210 nm. We used a 10-minute gradient of 30-60% acetonitrile in water with 0.1% trifluoroacetic acid under 1 mL/minute flow rate.
2 μM ^W37VLplA and 500 μM coumarin probe were used in one case. Aliquots from the reaction were collected and quenched with EDTA over 55 minutes. For the other case, 1 μM ^W37VLplA and 100 μM coumarin probe were used, and aliquots were collected and quenched over 70 minutes. After HPLC analysis, percent product conversions were calculated by dividing the product peak area by the sum of (product+starting material) peak areas.

[5] = cited from earlier work
W37VLplA [6] = molecular target: T2, W37VLplA; conditions: previously determined, cited from earlier work
Trp37→Gly LplA = Trp37→Gly LplA (Escherichia coli, UniProt P32099, W38G); conditions: 30 min reaction, 500 μM probe; normalized to TCO2/Trp37→Val
Trp37→Gly LplA, sequence (P32099 2-338 W38G): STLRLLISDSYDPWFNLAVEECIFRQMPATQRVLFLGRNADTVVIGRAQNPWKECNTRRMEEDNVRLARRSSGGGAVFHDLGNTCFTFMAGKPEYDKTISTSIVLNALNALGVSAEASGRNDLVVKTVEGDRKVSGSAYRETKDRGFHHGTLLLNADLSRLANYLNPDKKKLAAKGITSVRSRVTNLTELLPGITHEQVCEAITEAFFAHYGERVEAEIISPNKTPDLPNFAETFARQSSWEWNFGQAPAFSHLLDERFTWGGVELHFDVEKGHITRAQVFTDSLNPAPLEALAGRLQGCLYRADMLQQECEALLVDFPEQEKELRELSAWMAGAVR
Method: (§1) LplA protein was purified as previously described2 and stored at −80° C. in 20 mM Tris-HCl, pH 7.5 supplementated with 10% v/v glycerol. Reactions were quenched with 30 mM EDTA (final concentration) and resolved by HPLC (Varian ProStar) on a C-18 column using a linear gradient of 25-60% acetonitrile in H2O (with 0.1% v/v trifluoroacetic acid) over 14 minutes. Species were detected at 210 nm absorbance. Peaks corresponding to LAP and its trans-cyclooctene adducts were confirmed by ESI mass spectrometry. The extent of conversion was calculated from ratios of peak areas, neglecting minor extinction coefficient changes to LAP due to trans-cyclooctene ligation.
(§2) The relative abilities of wild-type and mutant ligases to ligate TCO1-3 onto LplA acceptor peptide (LAP) were measured by an HPLC assay after 30 min. reaction time. […] Errors, ±1 s. d.

Trp37→Ile LplA = Trp37→Ile LplA (Escherichia coli, UniProt P32099, W38I); conditions: 30 min reaction, 500 μM probe; normalized to TCO2/Trp37→Val
Trp37→Ile LplA, sequence (P32099 2-338 W38I): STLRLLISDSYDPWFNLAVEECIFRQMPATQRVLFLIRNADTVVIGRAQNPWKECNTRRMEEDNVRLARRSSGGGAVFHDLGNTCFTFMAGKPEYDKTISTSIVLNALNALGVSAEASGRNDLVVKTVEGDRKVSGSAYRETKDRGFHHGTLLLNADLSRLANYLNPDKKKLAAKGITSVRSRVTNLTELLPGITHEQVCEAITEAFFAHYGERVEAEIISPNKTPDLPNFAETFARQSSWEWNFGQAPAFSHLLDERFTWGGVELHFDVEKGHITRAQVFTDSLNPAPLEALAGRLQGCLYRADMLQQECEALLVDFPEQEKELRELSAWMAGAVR
Method: as §1, §2

[7] = molecular target: Trp37→Val LplA (W37VLplA) (Escherichia coli, UniProt P32099, W38V); conditions: 30 min reaction, 500 μM probe; normalized to TCO2/Trp37→Val
Trp37→Val LplA (W37VLplA), sequence (P32099 2-338 W38V): as the sequence (P32099 2-338 W38V) above
Method: as §1, §2

With “6,8-difluoro-7-hydroxycoumarin [Pacific Blue]” the “conversion to ligation product” value (W37TLplA) was about 50%.
For R-phycoerythrin, the “brightness relative to AlexaFluor 568” value [1] was over 25 times.
With “Aminobenzyltetrazine Alexa Fluor 647 [Tz1-Alexa 647]” the “dye concentration giving specific signal” value [2] was 10 nM.
In the case of `O=C(O)CCCCNC(=O)c1cc2ccc(O)cc2oc1=O` [7-hydroxycoumarin 2], the “pH dependence of fluorescence” value [3] is given as “drops sharply at pH values <6.5”, the “LAP converted to product” value (W37VLplA [4]) is given as 46% and the emission maximum ([5]; Sun, et al.) is given as 448 nm. For the same compound, the excitation maximum ([5]; Sun, et al.) was 386 nm, the extinction coefficient ([5]; Sun, et al.) was 36,700 M^−1 cm^−1 and the “pKa of 7-OH substituent” value [5] was 7.5. The Km (W37VLplA [6]) was 56 ± 20 µM, the kcat (W37VLplA [6]) was 0.019 s⁻¹ and the kcat (W37VLplA [6]; listed as HC4) was 0.019 ± 0.004 s⁻¹.
For `O=C(O)CCCNC(=O)OC[C@H]1[C@@H]2CC/C=C/CC[C@@H]21` [TCO3, (rel-1R,8S,9R,4E)-Bicyclo[6.1.0]non-4-ene-9-ylmethyl-N-butyric acid carbamate], the “Ligation efficiency (average, normalized product percentage), Trp37→Gly” value (Trp37→Gly LplA) was 22.6 ± 2.0%, the “Ligation efficiency (average, normalized product percentage), Trp37→Ile” value (Trp37→Ile LplA) was 6.0 ± 0.6% and the “Ligation efficiency (average, normalized product percentage), Trp37→Val” value [7] was 6.6 ± 0.6%.
